Biological target: GluA1o-γ8 (GRIA1o-CACNG8 fusion construct) (Homo sapiens (Human), UniProt P42261+Q8WXS5)
Test: Calcium flux assay (FLIPR), inhibition of TARP γ8 dependent AMPA receptor activity
Assay type: cell-based
Details: GluA1o-γ8 (GRIA1o-CACNG8 fusion) in HEK293 cells, calcium flux after 15 μM glutamate
Method in brief: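 Glutamate (15 μM) was added to a stable HEK293 line carrying the GluA1o–γ8 fusion, which had been preincubated with compound and calcium dye in HEPES buffer, pH 7.4. Normalized FLIPR fluorescence (no compound vs 10 μM CP465022) was fitted with four parameters; pIC50 is the midpoint's negative log.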

Chain of GluA1o-γ8 (GRIA1o-CACNG8 fusion construct) (P42261 other isoform, or with tags, fused parts or gaps): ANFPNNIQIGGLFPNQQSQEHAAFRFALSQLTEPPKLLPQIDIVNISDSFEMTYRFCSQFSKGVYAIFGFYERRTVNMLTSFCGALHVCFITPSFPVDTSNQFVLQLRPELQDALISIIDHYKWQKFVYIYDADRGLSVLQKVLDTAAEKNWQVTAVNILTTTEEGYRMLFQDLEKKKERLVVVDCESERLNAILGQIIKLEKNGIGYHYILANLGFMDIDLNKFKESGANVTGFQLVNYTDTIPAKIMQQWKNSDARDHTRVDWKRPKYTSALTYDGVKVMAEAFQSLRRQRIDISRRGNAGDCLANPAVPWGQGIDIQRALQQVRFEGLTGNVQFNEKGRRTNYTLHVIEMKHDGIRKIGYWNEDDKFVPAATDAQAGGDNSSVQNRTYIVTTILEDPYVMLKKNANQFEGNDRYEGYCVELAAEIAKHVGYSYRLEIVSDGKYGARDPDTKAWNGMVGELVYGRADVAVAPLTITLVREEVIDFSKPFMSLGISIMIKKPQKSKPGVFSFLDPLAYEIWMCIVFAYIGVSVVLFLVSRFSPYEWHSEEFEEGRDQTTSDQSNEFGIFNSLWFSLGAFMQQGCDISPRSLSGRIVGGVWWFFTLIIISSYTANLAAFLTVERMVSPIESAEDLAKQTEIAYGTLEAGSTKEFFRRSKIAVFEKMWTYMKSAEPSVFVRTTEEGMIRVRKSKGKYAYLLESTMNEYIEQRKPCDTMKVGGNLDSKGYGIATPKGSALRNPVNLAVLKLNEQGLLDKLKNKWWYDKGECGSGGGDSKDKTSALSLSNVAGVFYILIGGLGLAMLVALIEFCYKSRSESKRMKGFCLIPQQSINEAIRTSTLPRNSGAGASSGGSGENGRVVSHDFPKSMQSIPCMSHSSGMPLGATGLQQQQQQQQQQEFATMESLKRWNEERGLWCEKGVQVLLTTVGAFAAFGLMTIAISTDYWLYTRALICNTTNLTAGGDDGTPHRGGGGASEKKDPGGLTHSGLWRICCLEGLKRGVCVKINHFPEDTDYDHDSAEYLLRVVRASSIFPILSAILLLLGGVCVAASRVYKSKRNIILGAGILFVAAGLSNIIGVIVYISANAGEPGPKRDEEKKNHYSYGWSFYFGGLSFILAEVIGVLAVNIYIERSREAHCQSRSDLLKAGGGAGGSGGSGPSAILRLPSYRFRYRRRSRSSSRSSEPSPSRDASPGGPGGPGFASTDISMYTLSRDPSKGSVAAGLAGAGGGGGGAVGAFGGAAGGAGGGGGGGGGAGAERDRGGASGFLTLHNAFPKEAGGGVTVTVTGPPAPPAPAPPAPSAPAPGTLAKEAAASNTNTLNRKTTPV

| SMILES | IC50 |
| --- | --- |
| CC(C)c1nc2ccc(C(F)(F)F)nc2n1-c1cc(Cl)c2[nH]ncc2c1 [Example 316, 3-(7-Chloro-1H-indazol-5-yl)-2-isopropyl-5-(trifluoromethyl)imidazo[4,5-b]pyridine] | 0.02 nM |
| Cc1cc(-n2c(C(F)(F)F)nc3cccnc32)cc2cn[nH]c12 [Example 317, 3-(7-Methyl-1H-indazol-5-yl)-2-(trifluoromethyl)imidazo[4,5-b]pyridine] | 10 nM |
| Cc1cc(-n2c(C(F)(F)F)nc3cccnc32)cc2c1NC(=O)C2 [Example 318, 7-Methyl-5-[2-(trifluoromethyl)imidazo[4,5-b]pyridin-3-yl]indolin-2-one] | 31.6 nM |
| Cc1cc(-n2c(C)nc3ccc(C(F)(F)F)nc32)cc2cn[nH]c12 [Example 319, 2-Methyl-3-(7-methyl-1H-indazol-5-yl)-5-(trifluoromethyl)imidazo[4,5-b]pyridine] | 0.631 nM |
| FC(F)(F)c1nc2ccc(-c3ccccn3)nc2n1-c1ccc2[nH]ncc2c1 [Example 320, 3-(1H-Indazol-5-yl)-5-(2-pyridyl)-2-(trifluoromethyl)imidazo[4,5-b]pyridine] | 200 nM |
| FC(F)c1ccc2nc(C3CC3)n(-c3ccc4[nH]ncc4c3)c2n1 [Example 321, 2-Cyclopropyl-5-(difluoromethyl)-3-(1H-indazol-5-yl)imidazo[4,5-b]pyridine] | 1 nM |
| Fc1ccc(-c2nc3ccc(C(F)F)nc3n2-c2ccc3[nH]ncc3c2)cc1 [Example 322, 5-(Difluoromethyl)-2-(4-fluorophenyl)-3-(1H-indazol-5-yl)imidazo[4,5-b]pyridine] | 0.0631 nM |
| FC(F)c1ccc2nc(-c3ccccc3)n(-c3ccc4[nH]ncc4c3)c2n1 [Example 323, 5-(Difluoromethyl)-3-(1H-indazol-5-yl)-2-phenyl-imidazo[4,5-b]pyridine] | 0.0501 nM |
| FC(F)c1ccc2nc(C(F)(F)F)n(-c3cc(Cl)c4[nH]ncc4c3)c2n1 [Example 324, 3-(7-Chloro-1H-indazol-5-yl)-5-(difluoromethyl)-2-(trifluoromethyl)imidazo[4,5-b]pyridine] | 0.0501 nM |
| O=C1Cc2cc(-n3c(C(F)(F)F)nc4ccc(C(F)F)nc43)cc(F)c2N1 [Example 325, 5-[5-(Difluoromethyl)-2-(trifluoromethyl)imidazo[4,5-b]pyridin-3-yl]-7-fluoro-indolin-2-one] | 0.316 nM |
| Cc1cc(-n2c(C(F)(F)F)nc3ccc(C(F)F)nc32)cc2cn[nH]c12 [Example 326, 5-(Difluoromethyl)-3-(7-methyl-1H-indazol-5-yl)-2-(trifluoromethyl)imidazo[4,5-b]pyridine] | 0.0398 nM |
| Cc1ccc2nc(-c3ccnc(F)c3)n(-c3cc(Cl)c4[nH]ncc4c3)c2n1 [Example 327, 3-(7-Chloro-1H-indazol-5-yl)-2-(2-fluoro-4-pyridyl)-5-methyl-imidazo[4,5-b]pyridine] | 0.251 nM |
| Cc1cc(-n2c(CO)cc3ccc(C(F)(F)F)nc32)cc2c1NC(=O)C2 [Example 329, 5-(2-(Hydroxymethyl)-6-(trifluoromethyl)-1H-pyrrolo[2,3-b]pyridin-1-yl)-7-methylindolin-2-one] | 1 nM |
| OCc1cc2ccc(C(F)(F)F)nc2n1-c1ccc2[nH]ncc2c1 [Example 330, (1-(1H-Indazol-5-yl)-6-(trifluoromethyl)-1H-pyrrolo[2,3-b]pyridin-2-yl)methanol] | 25.1 nM |
| Cc1cc(-n2c(C)cc3ccc(C(F)(F)F)nc32)cc2c1NC(=O)C2 [Example 331, 7-Methyl-5-(2-methyl-6-(trifluoromethyl)-1H-pyrrolo[2,3-b]pyridin-1-yl)indolin-2-one] | 0.01 nM |
| Cc1cc(-n2c(C(C)C)cc3cccnc32)cc2cn[nH]c12 [Example 332, 5-(2-Isopropyl-1H-pyrrolo[2,3-b]pyridin-1-yl)-7-methyl-1H-indazole] | 0.0398 nM |

| SMILES | IC50 |
| --- | --- |
| Cc1cc2cccnc2n1-c1cc(Cl)c2[nH]ncc2c1 [Example 333, 1-(7-Chloro-1H-indazol-5-yl)-2-methyl-pyrrolo[2,3-b]pyridine] | 6.31 nM |
| Cc1cc(-n2c(C(C)C)cc3ccc(C(F)F)nc32)cc2c1NC(=O)C2 [Example 334, 5-[6-(Difluoromethyl)-2-isopropyl-pyrrolo[2,3-b]pyridin-1-yl]-7-methyl-indolin-2-one] | 0.0398 nM |
| CC(C)c1cc2ccc(C(F)(F)F)nc2n1-c1ccc2[nH]ncc2c1 [Example 335, 1-(1H-Indazol-5-yl)-2-isopropyl-6-(trifluoromethyl)pyrrolo[2,3-b]pyridine] | 0.0158 nM |
| Cc1cc(-n2c(C(F)F)cc3ccc(C(F)(F)F)nc32)cc2c1NC(=O)C2 [Example 336, 5-[2-(Difluoromethyl)-6-(trifluoromethyl)pyrrolo[2,3-b]pyridin-1-yl]-7-methyl-indolin-2-one] | 0.01 nM |
| O=c1[nH]c2ccc(-n3c(C(F)F)cc4ccc(C(F)(F)F)nc43)cc2s1 [Example 337, 6-[2-(Difluoromethyl)-6-(trifluoromethyl)pyrrolo[2,3-b]pyridin-1-yl]-3H-1,3-benzothiazol-2-one] | 0.126 nM |
| Cc1cc2cccnc2n1-c1cc(Cl)c2c(c1)CC(=O)N2 [Example 338, 7-Chloro-5-(2-methylpyrrolo[2,3-b]pyridin-1-yl)indolin-2-one] | 7.94 nM |
| Cc1cc(-n2cc(O)c3ccc(C(F)(F)F)nc32)cc2cn[nH]c12 [Example 339, 1-(7-Methyl-1H-indazol-5-yl)-6-(trifluoromethyl)pyrrolo[2,3-b]pyridin-3-ol] | 79.4 nM |
| Cc1cc(-n2cc(C(F)F)c3ccc(C(F)(F)F)nc32)cc2cn[nH]c12 [Example 340, 3-(Difluoromethyl)-1-(7-methyl-1H-indazol-5-yl)-6-(trifluoromethyl)pyrrolo[2,3-b]pyridine] | 12.6 nM |
| Cc1ccc2ccn(-c3cc(C)c4[nH]ncc4c3)c2n1 [Example 341, 6-Methyl-1-(7-methyl-1H-indazol-5-yl)pyrrolo[2,3-b]pyridine] | 15.8 nM |
| Cc1ccc2cc(C(C)C)n(-c3ccc4c(c3)CC(=O)N4)c2n1 [Example 342, 5-(2-Isopropyl-6-methyl-pyrrolo 2,3-bpyridin-1-yl)indolin-2-one] | 0.251 nM |
| COc1ccc2cc(-c3ccc(F)cc3)n(-c3ccc4[nH]ccc4c3)c2n1 [Example 343, 2-(4-Fluorophenyl)-1-(1H-indol-5-yl)-6-methoxy-pyrrolo[2,3-b]pyridine] | 631 nM |
| Fc1ccc(-c2cc3cccnc3n2-c2ccc3c(c2)CCN3)cc1 [Example 344, 2-(4-Fluorophenyl)-1-indolin-5-yl-pyrrolo[2,3-b]pyridine] | 501 nM |
| Fc1ccc(-c2cc3cccnc3n2-c2ccc3[nH]ccc3c2)cc1 [Example 345, 2-(4-Fluorophenyl)-1-(1H-indol-5-yl)pyrrolo[2,3-b]pyridine] | 79.4 nM |
| O=C1Cc2cc(-n3c(-c4ccc(F)cc4)c(Br)c4cccnc43)ccc2N1 [Example 346, 5-[3-Bromo-2-(4-fluorophenyl)pyrrolo[2,3-b]pyridin-1-yl]indolin-2-one] | 3.98 nM |
| O=C1Cc2cc(-n3c(-c4ccc(F)cc4)cc4cccnc43)ccc2N1 [Example 347, 5-[2-(4-Fluorophenyl)pyrrolo[2,3-b]pyridin-1-yl]indolin-2-one] | 2.51 nM |
| Fc1ccc(-c2cc3ccc(F)nc3n2-c2ccc3[nH]ccc3c2)cc1 [Example 348, 6-Fluoro-2-(4-fluorophenyl)-1-(1H-indol-5-yl)pyrrolo[2,3-b]pyridine] | 100 nM |
